Test results published in US10233182B2, “Substituted spirocyclic inhibitors of autotaxin” (X-Rx, Inc., priority 2014, dated 2019).

Target: Autotaxin (Homo sapiens (Human), UniProt Q13822)
Assay: Autotaxin LPC Cascade Assay
Type: biochemical
Conditions: Autotaxin 5 nM, LPC 100 μM, choline oxidase/HRP/Ampliflu Red fluorescence read-out, 2% DMSO, RT; read-out: IC50 ATX Activity
In short: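 Choline liberated from LPC by autotaxin during 1 h, after a 10-min RT compound preincubation, was converted through choline oxidase/HRP to a fluorescent Ampliflu Red product.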

| Compound | IC50 |
| --- | --- |
| CC(C)[C@@H](NC(=O)c1cc(C(F)(F)F)ccc1F)C(=O)N1CCC2(CC1)C(=O)N(C)C(=O)N2Cc1ccc2[nH]ncc2c1 [Example 98, (R)—N-(1-(1-((1H-Indazol-5-yl)methyl)-3-methyl-2,4-dioxo-1,3,8-triazaspiro[4.5]decan-8-yl)-3-methyl-1-oxobutan-2-yl)-2-fluoro-5-(trifluoromethyl)benzamide] | < 500 nM |
| CC(C)[C@@H](NC(=O)c1cc(C(F)(F)F)ccc1F)C(=O)N1CCC2(CC1)C(=O)N(C)C(=O)N2Cc1ccc(Cl)cc1 [Example 99, (R)—N-(1-(1-(4-Chlorobenzyl)-3-methyl-2,4-dioxo-1,3,8-triazaspiro[4.5]decan-8-yl)-3-methyl-1-oxobutan-2-yl)-2-fluoro-5-(trifluoromethyl)benzamide] | < 500 nM |
| CC(C)[C@@H](NC(=O)c1cc(C(F)(F)F)ccc1F)C(=O)N1CCC2(CC1)C(=O)N(C)C(=O)N2Cc1ccc2nccnc2c1 [Example 100, (R)-2-Fluoro-N-(3-methyl-1-(3-methyl-2,4-dioxo-1-(quinoxalin-6-ylmethyl)-1,3,8-triazaspiro[4.5]decan-8-yl)-1-oxobutan-2-yl)-5-(trifluoromethyl)benzamide] | < 500 nM |
| CC(C)[C@@H](NC(=O)c1cc(C(F)(F)F)ccc1F)C(=O)N1CCC2(CC1)C(=O)N(C)C(=O)N2Cc1cccc(C#N)c1 [Example 101, (R)—N-(1-(1-(3-Cyanobenzyl)-3-methyl-2,4-dioxo-1,3,8-triazaspiro[4.5]decan-8-yl)-3-methyl-1-oxobutan-2-yl)-2-fluoro-5-(trifluoromethyl)benzamide] | < 500 nM |
| CC(C)[C@@H](NC(=O)c1cc(C(F)(F)F)ccc1F)C(=O)N1CCC2(CC1)C(=O)N(C)C(=O)N2Cc1ccn2ccnc2c1 [Example 102, (R)-2-Fluoro-N-(1-(1-(imidazo[1,2-a]pyridin-7-ylmethyl)-3-methyl-2,4-dioxo-1,3,8-triazaspiro[4.5]decan-8-yl)-3-methyl-1-oxobutan-2-yl)-5-(trifluoromethyl)benzamide] | 500 to 1000 nM |
| CC(C)[C@@H](NC(=O)c1cc(C(F)(F)F)ccc1F)C(=O)N1CCC2(CC1)C(=O)N(C)C(=O)N2Cc1cccc(S(C)(=O)=O)c1 [Example 103, (R)-2-Fluoro-N-(3-methyl-1-(3-methyl-1-(3-(methylsulfonyl)benzyl)-2,4-dioxo-1,3,8-triazaspiro[4.5]decan-8-yl)-1-oxobutan-2-yl)-5-(trifluoromethyl)benzamide] | 500 to 1000 nM |
| CC(C)[C@@H](NC(=O)c1cc(C(F)(F)F)ccc1F)C(=O)N1CCC2(CC1)C(=O)N(C)C(=O)N2Cc1cccc(Cl)c1 [Example 104, (R)—N-(1-(1-(3-Chlorobenzyl)-3-methyl-2,4-dioxo-1,3,8-triazaspiro[4.5]decan-8-yl)-3-methyl-1-oxobutan-2-yl)-2-fluoro-5-(trifluoromethyl)benzamide] | < 500 nM |
| CC(C)[C@@H](NC(=O)c1cc(C(F)(F)F)ccc1F)C(=O)N1CCC2(CC1)C(=O)N(C)C(=O)N2Cc1ccc2oc(=O)n(C)c2c1 [Example 105, (R)-2-Fluoro-N-(3-methyl-1-(3-methyl-1-((3-methyl-2-oxo-2,3-dihydrobenzo[d]oxazol-5-yl)methyl)-2,4-dioxo-1,3,8-triazaspiro[4.5]decan-8-yl)-1-oxobutan-2-yl)-5-(trifluoromethyl)benzamide] | < 500 nM |
| Cc1nc2ccc(CN3C(=O)N(C)C(=O)C34CCN(C(=O)[C@H](NC(=O)c3cc(C(F)(F)F)ccc3F)C(C)C)CC4)cc2[nH]1 [Example 106, (R)-2-Fluoro-N-(3-methyl-1-(3-methyl-1-((2-methyl-1H-benzo[d]imidazol-6-yl)methyl)-2,4-dioxo-1,3,8-triazaspiro[4.5]decan-8-yl)-1-oxobutan-2-yl)-5-(trifluoromethyl)benzamide] | ≥ 1000 nM |
| COc1ccc(F)c(CN2C(=O)N(C)C(=O)C23CCN(C(=O)[C@H](NC(=O)c2cc(C(F)(F)F)ccc2F)C(C)C)CC3)c1 [Example 107, (R)-2-Fluoro-N-(1-(1-(2-fluoro-5-methoxybenzyl)-3-methyl-2,4-dioxo-1,3,8-triazaspiro[4.5]decan-8-yl)-3-methyl-1-oxobutan-2-yl)-5-(trifluoromethyl)benzamide] | < 500 nM |
| COc1ccc(CN2C(=O)N(C)C(=O)C23CCN(C(=O)[C@H](NC(=O)c2cc(C(F)(F)F)ccc2F)C(C)C)CC3)c(F)c1 [Example 108, (R)-2-Fluoro-N-(1-(1-(2-fluoro-4-methoxybenzyl)-3-methyl-2,4-dioxo-1,3,8-triazaspiro[4.5]decan-8-yl)-3-methyl-1-oxobutan-2-yl)-5-(trifluoromethyl)benzamide] | < 500 nM |
| CN1C(=O)N(Cc2ccc3nccnc3c2)C2(CCN(C(=O)[C@H](NC(=O)c3cc(C(F)(F)F)ccc3F)C3CC3)CC2)C1=O [Example 109, (R)—N-(1-Cyclopropyl-2-(3-methyl-2,4-dioxo-1-(quinoxalin-6-ylmethyl)-1,3,8-triazaspiro[4.5]decan-8-yl)-2-oxoethyl)-2-fluoro-5-(trifluoromethyl)benzamide] | < 500 nM |

More lines, now with the values ahead:

| IC50 | Compound |
| --- | --- |
| < 500 nM | CN1C(=O)N(Cc2ccc3nccnc3c2)C2(CCN(C(=O)[C@H](NC(=O)c3cc(C(F)(F)F)ccc3F)C3CCC3)CC2)C1=O [Example 110, (R)—N-(1-Cyclobutyl-2-(3-methyl-2,4-dioxo-1-(quinoxalin-6-ylmethyl)-1,3,8-triazaspiro[4.5]decan-8-yl)-2-oxoethyl)-2-fluoro-5-(trifluoromethyl)benzamide] |
| ≥ 1000 nM | CC(C)[C@@H](NC(=O)c1cc(C(F)(F)F)ccc1F)C(=O)N1CCC2(CC1)C(=O)N(C)C(=O)N2Cc1ncccn1 [Example 111, (R)-2-Fluoro-N-(3-methyl-1-(3-methyl-2,4-dioxo-1-(pyrimidin-2-ylmethyl)-1,3,8-triazaspiro[4.5]decan-8-yl)-1-oxobutan-2-yl)-5-(trifluoromethyl)benzamide] |
| < 500 nM | CN1C(=O)N(Cc2ccc3nccnc3c2)C2(CCN(C(=O)[C@H](NC(=O)c3cc(C(F)(F)F)ccc3F)C3CCCC3)CC2)C1=O [Example 112, (R)—N-(1-Cyclopentyl-2-(3-methyl-2,4-dioxo-1-(quinoxalin-6-ylmethyl)-1,3,8-triazaspiro[4.5]decan-8-yl)-2-oxoethyl)-2-fluoro-5-(trifluoromethyl)benzamide] |
| ≥ 1000 nM | CC(C)[C@@H](NC(=O)c1cc(C(F)(F)F)ccc1F)C(=O)N1CCC2(CC1)C(=O)N(C)C(=O)N2Cc1ccnc(C#N)c1 [Example 113] |
| ≥ 1000 nM | Cc1nc2cc(CN3C(=O)N(C)C(=O)C34CCN(C(=O)[C@H](NC(=O)c3cc(C(F)(F)F)ccc3F)C(C)C)CC4)ccn2n1 [Example 114, (R)-2-Fluoro-N-(3-methyl-1-(3-methyl-1-((2-methyl-[1,2,4]triazolo[1,5-a]pyridin-7-yl)methyl)-2,4-dioxo-1,3,8-triazaspiro[4.5]decan-8-yl)-1-oxobutan-2-yl)-5-(trifluoromethyl)benzamide] |
| ≥ 1000 nM | CC(C)[C@@H](NC(=O)c1cc(C(F)(F)F)ccc1F)C(=O)N1CCC2(CC1)C(=O)N(C)C(=O)N2Cc1cnn(C)c1 [Example 115, (R)-2-Fluoro-N-(3-methyl-1-(3-methyl-1-((1-methyl-1H-pyrazol-4-yl)methyl)-2,4-dioxo-1,3,8-triazaspiro[4.5]decan-8-yl)-1-oxobutan-2-yl)-5-(trifluoromethyl)benzamide] |
| < 500 nM | Cc1nc2cc(CN3C(=O)N(C)C(=O)C34CCN(C(=O)[C@H](NC(=O)c3cc(C(F)(F)F)ccc3F)C(C)C)CC4)ccc2o1 [Example 116, (R)-2-Fluoro-N-(3-methyl-1-(3-methyl-1-((2-methylbenzo[d]oxazol-5-yl)methyl)-2,4-dioxo-1,3,8-triazaspiro[4.5]decan-8-yl)-1-oxobutan-2-yl)-5-(trifluoromethyl)benzamide] |
| ≥ 1000 nM | Cc1csc(CN2C(=O)N(C)C(=O)C23CCN(C(=O)[C@H](NC(=O)c2cc(C(F)(F)F)ccc2F)C(C)C)CC3)n1 [Example 117, (R)-2-Fluoro-N-(3-methyl-1-(3-methyl-1-((4-methylthiazol-2-yl)methyl)-2,4-dioxo-1,3,8-triazaspiro[4.5]decan-8-yl)-1-oxobutan-2-yl)-5-(trifluoromethyl)benzamide] |
| < 500 nM | Cc1nc2ccc(CN3C(=O)N(C)C(=O)C34CCN(C(=O)[C@H](NC(=O)c3cc(C(F)(F)F)ccc3F)C(C)C)CC4)cc2o1 [Example 118, (R)-2-Fluoro-N-(3-methyl-1-(3-methyl-1-((2-methylbenzo[d]oxazol-6-yl)methyl)-2,4-dioxo-1,3,8-triazaspiro[4.5]decan-8-yl)-1-oxobutan-2-yl)-5-(trifluoromethyl)benzamide] |
| < 500 nM | COc1ccc(CN2C(=O)N(C)C(=O)C23CCN(C(=O)[C@H](NC(=O)c2cc(C(F)(F)F)ccc2F)C(C)C)CC3)c(Cl)c1 [Example 119, (R)—N-(1-(1-(2-Chloro-4-methoxybenzyl)-3-methyl-2,4-dioxo-1,3,8-triazaspiro[4.5]decan-8-yl)-3-methyl-1-oxobutan-2-yl)-2-fluoro-5-(trifluoromethyl)benzamide] |
| 500 to 1000 nM | CC(C)[C@@H](NC(=O)c1cc(C(F)(F)F)ccc1F)C(=O)N1CCC2(CC1)C(=O)N(C)C(=O)N2Cc1ccc(=O)n(C)c1 [Example 120, (R)-2-Fluoro-N-(3-methyl-1-(3-methyl-1-((1-methyl-6-oxo-1,6-dihydropyridin-3-yl)methyl)-2,4-dioxo-1,3,8-triazaspiro[4.5]decan-8-yl)-1-oxobutan-2-yl)-5-(trifluoromethyl)benzamide] |
| ≥ 1000 nM | CC(=O)N1CC(CN2C(=O)N(C)C(=O)C23CCN(C(=O)[C@H](NC(=O)c2cc(C(F)(F)F)ccc2F)C(C)C)CC3)C1 [Example 121, (R)—N-(1-(1-((1-Acetylazetidin-3-yl)methyl)-3-methyl-2,4-dioxo-1,3,8-triazaspiro[4.5]decan-8-yl)-3-methyl-1-oxobutan-2-yl)-2-fluoro-5-(trifluoromethyl)benzamide] |
| ≥ 1000 nM | CC(C)[C@@H](NC(=O)c1cc(C(F)(F)F)ccc1F)C(=O)N1CCC2(CC1)C(=O)N(C)C(=O)N2C [Example 122, (R)—N-(1-(1,3-Dimethyl-2,4-dioxo-1,3,8-triazaspiro[4.5]decan-8-yl)-3-methyl-1-oxobutan-2-yl)-2-fluoro-5-(trifluoromethyl)benzamide] |
